# Columns and labels:
# [1] = tested on: SH-SY5Y human neuroblastomas; experiment: Neuroprotection against cell death caused by oxidizing stress (H2O2), MTT readout; type: cell-based; set-up: key to Neuroprotective effect against cell death caused by oxidizing stress: −: no effect; +: low effect; ++: high effect; +++: very high effect; conditions: H2O2 1 mM; for Neuroprotective effect against cell death caused by oxidizing stress: SH-SY5Y cultures, 24 or 48 hours, MTT; for Protection of human neuroblastomas from cell death caused by H2O2 (in words): SH-SY5Y
# Procedure: (§1) The cellular model used to carry out the in vitro experiments is a line of human neuroblastomas called line SH-SY5Y.
# (§2) The human neuroblastoma is a cultivated at 37° C. in a humidity saturated atmosphere, under 5% CO2 in a culture medium formed by DMEM with an added 10% (v/v) fetal calf serum, 5% (v/v) horse serum, 2 mM glutamax and 1% (v/v) of the penicillin/streptomycin mixture.
# The human neuroblastomas were incubated with the culture medium alone or containing the chief inducing agent of oxidizing stress, hydrogen peroxide (H2O2), at various concentrations in order to determine the concentrations of H2O2 and the incubation times causing the death of a significant percentage of the cells. The neuroprotective properties of the BR053, BR338, BR297 and BR351 derivatives were determined by pretreating the SH-SY5Y cells with the culture medium alone or respectively containing the BR053, BR338, BR297 or BR351 derivative. After pretreatment, each of these categories of cells was integrated for 24 hours or 48 hours with the following solutions: (i) culture medium; (ii) culture medium containing only the BR053, BR338, BR297 or BR351 derivative; (iii) culture medium containing only H2O2 at a concentration of 1 mM, which causes a high percentage of cell death; (iv) culture medium containing both H2O2 (1 mM) and one of the BR053, BR338, BR297 or BR351 derivatives.
# 10 μl of a stock solution of tetrazolium, abbreviated MTT, at 3.6 mM was added in each well and the incubation continued in darkness for 5 h at 37° C. After cell lysis, spectrophotometer measurements at 595 nm were carried out to determine the survival and cell density under each of the conditions described above.
# Sprague-Dawley rats = experiment: Von Frey filament test, painful neuropathy caused by vincristine; type: in vivo, rat; conditions: rats with vincristine neuropathy, 4 mg/kg i.p. every 2 days for 2 weeks
# Excerpt: Adult male Sprague-Dawley rats weighing between 250 and 300 g were used. They came from the company Janvier (le Genest St. Isle, France). The care and handling of the animals were done in accordance with the guidelines from the Council of the European Community (86/609/EC) and in accordance with the ethical rules of the International Association for the Study of Pain. The protocol used to carry out the in vivo studies was subject to examination and authorization granted to Prof. Mensah-Nyagan's team by the Alsatian Department of the Veterinary Public Health Guide for the Care and Use of Laboratory Animals (Approval number 67-186). The rats were housed under standard conditions with a photoperiod of 12 h day/12 h night, with unlimited food and water. The animals spent one acclimatization week before being integrated into the experimental protocols. Each animal was examined daily to detect any signs of deterioration of its health condition, such as dramatic weight loss, a decrease in appetite during chemotherapy and pharmacological treatment.
# Vincristine sulfate (VINC), purchased from Sigma-Aldrich (St. Louis, Mo., USA), was dissolved in a physiological saline solution (NaCl 0.9%) at 0.1 mg/ml and stored at 4° C. The saline solution (NaCl 0.9%) is used as excipient. The VINC is injected daily by intraperitoneal injection (i.p.), in 2 cycles of 5 days separated by 2 days off, at a concentration of 0.1 mg/kg/day. The control animals were injected by i.p. (1 ml/kg) with the excipient using a similar protocol.
# The allopregnanolone in the derivatives according to the invention (BR053 and BR297) were diluted in a hydroxypropylcellulose (HPC) solution (0.3%) used as excipient. The curative treatment with allopregnanolone, BR053 or BR297 began 3 days after the vincristine cycles. Each of these compounds (allopregnanolone, BR053 or BR297) was administered by the intraperitoneal route at a dose of 4 mg/kg at a rate of one injection every 2 days. Thus, over the total duration of the in vivo experiments (14 days), each animal received 7 injections of excipient, allopregnanolone, BR053 or BR297, based on its group, at a dose of 4 mg/kg. The animals were sacrificed 24 hours after the last behavioral test (28th day) to remove tissues that will be used for later histology and electrophysiology studies.
# The mechanical nociceptive sensitivity threshold was evaluated in rats placed in individual Plexiglas boxes (30×30×25 cm) mounted on a raised mesh support thereby allowing access to the surface or arch of the back feet. The presence of allodynia (exaggerated response following a normally […] stimulation) was measured using a series of calibrated von Frey filaments (1, 2, 4, 6, 8, 10, 15, 26, 100, 180 and 300 g; Stoelting, Wood Dale, Ill., USA), which were applied on the sole of the back foot of the animal with increasing force until the filament twisted. The filament was applied for a period of 1 to 2 seconds and the procedure was repeated 5 times at 4-5 second intervals. The withdrawal threshold of the foot was calculated by taking the average of […] repeated stimuli (in grams) that caused a reflex to withdraw the foot. Only vigorous and fast withdrawals of the foot were considered positive. In the experiments, the naïve animals never responded to the 4 g filament and responded 25-30% of the time to the 15 g filament.
# [2] = tested on: SH-SY5Y human neuroblastomas; experiment: MTT assay of cell viability and density: effect on cell proliferation; type: cell-based; set-up: key to Effect on cell proliferation (neural proliferative effect): −: no effect; +: low effect; ++: high effect; +++: very high effect; conditions: SH-SY5Y cultures
# Procedure: as §1, §2
# The cellular viability and the density (or number of SH-SY5Y cells/cm^2) were determined using the MTT reduction assay. The MTT technique is a colorimetric test that measures the reduction of the tetrazolium salt (3-[4,5-dimethylthiazol-2-yl]-2,5-diphenyl tetrazolium bromide) in formazan by the succinate dehydrogenase present in the mitochondria of the living cells. The formazan forms blue crystals. Thus, after solubilization of the crystals, the measurement of the absorbance at 595 nm makes it possible to obtain absorbency values directly proportional to the number of viable cells and the cell density in the culture boxes.
# The effects of derivatives BR053, BR338, BR297 and BR351 on cell proliferation were evaluated by comparing the number of viable cells and the cell density in the control culture boxes, treated only with the culture medium described in paragraph A1 above, and the culture boxes exposed to the culture medium with the added BR053, BR338, BR297 or BR351 derivatives.
# [3] = tested on: human neuroblastoma cells; experiment: Whole-cell patch-clamp without GABA in the recording pipette (non-GABAergic effects); type: cell-based; conditions: GABA not added in the recording pipette
# Excerpt: The present Invention relates to derivatives of allopregnanolone or of epipregnanolone that primarily and clearly create a cellular effect that is completely independent of the GABAa receptors. In fact, electrophysiological experiments conducted on human neuroblastoma cells using a Patch-Clamp technique, in a Patch-Clamp whole cell configuration, made it possible to see that when the GABA is not in the pipette, i.e., not introduced, or when the GABAa receptors are not activated, said derivatives were capable of inducing a specific cellular activity.
# These experiments were carried out under the same recording conditions as the electrophysiological studies described above (A5), with the exception of the GABA, which was not added into the recording pipette.
Structure (SMILES),Neuroprotective effect against cell death caused by oxidizing stress [1],Protection of human neuroblastomas from cell death caused by H2O2 (in words) [1],Effect on mechanical allodynia and mechanical hyperalgesia (Sprague-Dawley rats),Effect on cell proliferation (neural proliferative effect) [2],Effect on the proliferation of human neuroblastomas (in words) [2],Induction of cellular activity without GABA (non-GABAergic effect) [3]
CC(=O)[C@H]1CCC2C3CC[C@H]4C[C@@H](O)CC[C@]4(C)C3CC(=O)[C@@]21C (stereo partly drawn) [BR053],+++,capable of protecting human neuroblastomas from the cell death,eliminates the symptoms,+,low effectiveness,capable of inducing cellular activity
C=CCO[C@H]1CC[C@]2(C)C3CC[C@@]4(C)C(CC[C@@H]4C(C)=O)C3CC[C@H]2C1 (stereo partly drawn) [BR297],++,capable of protecting human neuroblastomas from the cell death,eliminates the symptoms,−,no effect,capable of inducing cellular activity

# From patent US20190002492A1, “DERIVATIVES OF ALLOPR[…] OF EPIALLOPR[…] USES THEREOF FOR TREATING A NEUROPATHOLOGICAL CONDITION” (UNIVERSITE DE STRASBOURG, priority 2011, published 2019)
